Laboratory results taken from patent publication US12214092B2, “Systems and methods for treating biological fluids” (Cerus Corporation, priority 2017, dated 2025).

Legend:
[1] = Residual post-illumination amotosalen by LED wavelength in bacteria-spiked plasma, HPLC; details: for Post-UV S-59 / Pre-UV S-59: S. epidermidis plasma, 15 μM arm; for Post-UV S-59: ~3 J/cm^2; for Pre-UV S-59: pre-illumination
[2] = Residual amotosalen after second illumination (two-wavelength treatment); assay type: physicochemical; details: 15 μM amotosalen, ~3 J/cm^2 each
Experimental: (§1) Additionally, any two or more wavelengths of narrow bandwidth light are evaluated in combination, such as for example, photochemical treatment of a biological fluid using amotosalen and ultraviolet light of a first peak wavelength and ultraviolet light of a second peak wavelength, sequentially or concurrently. More specifically, in one example pathogen inactivation of E. coli (Gram negative) and S. epidermidis (Gram positive) bacteria was evaluated using amotosalen and the device with LEDs of wavelengths described in Example 8. […] The spiked plasma units were divided into control (no amotosalen+UV light) and treatment (with amotosalen) conditions, with amotosalen used at 15 μM concentration. The units were aliquoted into six-well plates (5 mL/well) for illumination. Pre-illumination samples were taken and control bacterial titers determined using standard colony forming unit assay. […] Data for pre-illumination titers, post-first illumination titer, post-second illumination titer, and post-treatment (after second illumination) residual amotosalen (S-59) are shown in the following Tables 40-41.

[3] = system: S. epidermidis; test: Amotosalen and two sequential UV light doses (UVC + UVA) treatment of S. epidermidis in plasma, colony forming unit assay; assay type: cell-based; details: 15 μM amotosalen, titer pre-UV 7.51; for Titer Post-Second: ~3 J/cm^2 each
Experimental: as §1

## Cc1oc2c(C)c3oc(=O)cc(C)c3cc2c1COCCN [S-59, 3-(2-aminoethoxymethyl)-2,5,9-trimethylfuro[3,2-g]chromen-7-one]
[1]; 280 nm
  Post-UV S-59: 11.8 µM
[1]; 310 nm arm
  Pre-UV S-59: 14.3 µM
[1]; 310 nm
  Post-UV S-59: 5.2 µM
[1]; 325 nm arm
  Pre-UV S-59: 14.9 µM
[1]; 325 nm
  Post-UV S-59: 3.7 µM
[1]; 340 nm arm
  Pre-UV S-59: 14.8 µM
[1]; 340 nm
  Post-UV S-59: 3.6 µM
[1]; 365 nm arm
  Pre-UV S-59: 14.8 µM
[1]; 365 nm
  Post-UV S-59: 7.8 µM
[1]; 385 nm arm
  Pre-UV S-59: 15.0 µM
[1]; 385 nm
  Post-UV S-59: 15.1 µM
[1]; amotosalen+325 nm and amotosalen+340 nm illumination
  residual amotosalen: less than 5 μM
[2]; E. coli plasma, UV 1 265 nm then UV 2 325 nm
  S-59: 4.76 µM
[2]; E. coli plasma, UV 1 265 nm then UV 2 340 nm
  S-59: 3.89 µM
[2]; E. coli plasma, UV 1 265 nm then UV 2 365 nm
  S-59: 8.07 µM
[2]; E. coli plasma, UV 1 280 nm then UV 2 325 nm
  S-59: 4.44 µM
[2]; E. coli plasma, UV 1 280 nm then UV 2 340 nm
  S-59: 3.62 µM
[2]; E. coli plasma, UV 1 280 nm then UV 2 365 nm
  S-59: 7.96 µM
[2]; E. coli plasma, UV 1 325 nm then UV 2 265 nm
  S-59: 4.88 µM
[2]; E. coli plasma, UV 1 325 nm then UV 2 280 nm
  S-59: 4.66 µM
[2]; E. coli plasma, UV 1 340 nm then UV 2 265 nm
  S-59: 4.43 µM
[2]; E. coli plasma, UV 1 340 nm then UV 2 280 nm
  S-59: 4.46 µM
[2]; E. coli plasma, UV 1 365 nm then UV 2 265 nm
  S-59: 8.13 µM
[2]; E. coli plasma, UV 1 365 nm then UV 2 280 nm
  S-59: 8.00 µM
[2]; S. epidermidis plasma, Light 1 265 nm then Light 2 325 nm
  S-59: 4.82 µM
[2]; S. epidermidis plasma, Light 1 265 nm then Light 2 340 nm
  S-59: 3.93 µM
[2]; S. epidermidis plasma, Light 1 265 nm then Light 2 365 nm
  S-59: 8.17 µM
[2]; S. epidermidis plasma, Light 1 280 nm then Light 2 325 nm
  S-59: 4.50 µM
[2]; S. epidermidis plasma, Light 1 280 nm then Light 2 340 nm
  S-59: 3.77 µM
[2]; S. epidermidis plasma, Light 1 280 nm then Light 2 365 nm
  S-59: 8.01 µM
[2]; S. epidermidis plasma, Light 1 325 nm then Light 2 265 nm
  S-59: 4.92 µM
[2]; S. epidermidis plasma, Light 1 325 nm then Light 2 280 nm
  S-59: 4.63 µM
[2]; S. epidermidis plasma, Light 1 340 nm then Light 2 265 nm
  S-59: 4.47 µM
[2]; S. epidermidis plasma, Light 1 340 nm then Light 2 280 nm
  S-59: 4.46 µM
[2]; S. epidermidis plasma, Light 1 365 nm then Light 2 265 nm
  S-59: 8.39 µM
[2]; S. epidermidis plasma, Light 1 365 nm then Light 2 280 nm
  S-59: 8.07 µM
[3]; Light 1 265 nm then Light 2 325 nm
  Titer Post-Second: <−0.11
[3]; Light 1 265 nm then Light 2 340 nm
  Titer Post-Second: <−0.11
[3]; Light 1 265 nm then Light 2 365 nm
  Titer Post-Second: <−0.11
[3]; Light 1 265 nm ~3 J/cm^2 (then 325 nm)
  Titer Post-First: 4.19
[3]; Light 1 265 nm ~3 J/cm^2 (then 340 nm)
  Titer Post-First: 4.37
[3]; Light 1 265 nm ~3 J/cm^2 (then 365 nm)
  Titer Post-First: 4.12
[3]; Light 1 280 nm then Light 2 325 nm
  Titer Post-Second: <−0.11
[3]; Light 1 280 nm then Light 2 340 nm
  Titer Post-Second: <−0.11
[3]; Light 1 280 nm then Light 2 365 nm
  Titer Post-Second: <−0.11
[3]; Light 1 280 nm ~3 J/cm^2 (then 325 nm)
  Titer Post-First: 4.13
[3]; Light 1 280 nm ~3 J/cm^2 (then 340 nm)
  Titer Post-First: 4.51
[3]; Light 1 280 nm ~3 J/cm^2 (then 365 nm)
  Titer Post-First: 4.19
[3]; Light 1 325 nm then Light 2 265 nm
  Titer Post-Second: <−0.11
[3]; Light 1 325 nm then Light 2 280 nm
  Titer Post-Second: <−0.11
[3]; Light 1 325 nm ~3 J/cm^2 (then 265 nm)
  Titer Post-First: <−0.11
[3]; Light 1 325 nm ~3 J/cm^2 (then 280 nm)
  Titer Post-First: <−0.11
[3]; Light 1 340 nm then Light 2 265 nm
  Titer Post-Second: <−0.11
[3]; Light 1 340 nm then Light 2 280 nm
  Titer Post-Second: <−0.11
[3]; Light 1 340 nm ~3 J/cm^2 (then 265 nm)
  Titer Post-First: <−0.11
[3]; Light 1 340 nm ~3 J/cm^2 (then 280 nm)
  Titer Post-First: 0.73
[3]; Light 1 365 nm then Light 2 265 nm
  Titer Post-Second: <−0.11
[3]; Light 1 365 nm then Light 2 280 nm
  Titer Post-Second: <−0.11
[3]; Light 1 365 nm ~3 J/cm^2 (then 265 nm)
  Titer Post-First: <−0.11
[3]; Light 1 365 nm ~3 J/cm^2 (then 280 nm)
  Titer Post-First: <−0.11
